Data taken from patent US5880076A, “Compositions comprising glycacarbamate and glycaurea compounds” (Lever Brothers Company, Division of Conopco, Inc., priority 1997, dated 1999).
Each block holds one compound with its values, some of them ahead of it.

How the values were obtained:
[1] = Viscosity Enhancement/Foam Stabilization (Brookfield Digital Viscometer); settings: for Viscosity (Centipoise): 22° C.
[2] = Viscosity Modification of Sodium Lauryl Sulfate prototype detergent compositions; format: physicochemical; settings: for Appearance (viscosity) / Viscosity Increase: 15.0% sodium lauryl sulfate; for Viscosity Increase: 22° C.
Protocol: The prototype detergent compositions are as follows:
(§1) Detergent Compositions Comprising Sodium
(§2) Lauryl Sulfate and Glycacarbamate Compounds
N-Dodecyl D-Glucocarbamate
2.0-7.0% Foam Stabilizer/Thickener
(§3) 2.0% Viscosity Cobuilder
(§4) Lauryl Sulfate and Glycaurea Compounds
(§5) The above formulations were prepared by admixing the above ingredients in listed order and heating the mixture to about 80° C. with rapid stirring. The mixture was then cooled to about 40° C., placed in a clear jar and stored at room temperature.
It is well known that the viscosity of a liquid composition comprision of anionic surfactant can be modified by the addition of inorganic salts, such as sodium chloride. However, in the absence of an organic modifier, high levels of salt may be necessary to achieve the required viscosity which may lead to problems of storage at cold temperature or even salting our certain ingrediets. In practice, however, the viscosity of a liquid compositionis modified by the simultaneous addition of thickener and small amounts of inorganic salt (viscosity cobuilder). The combined effect is greater than either one alone. The viscosity of the above prototype detergent compositions comprising various amounts of glycacarbamate/urea compound are as follows: […]

[3] = Surface Tension Reduction; format: physicochemical
Excerpt: An important characteristic feature that surfactants have is the tendency for them to absorb at the water/air interface in an oriented manner, thereby altering the interfacial free energy of that surface. The surface free energy per unit area or surface tension (γ), is a measure of this work and may be considered as the minimum amount of work required to bring sufficient surfactant molecules to the surface.

[4] = Critical Micelle Concentration (micelle formation); format: physicochemical
Excerpt: The critical micelle concentration (CMC) is defined as the concentration at which a surfactant forms micelles in aqueous solution. […] A necessary and sufficient condition for CMC formation and surface tension reduction is the presence of both hydrophilic and hydrophobic functional groups. The hydrophilic portion provides strong interaction between the surfactant at the interface and with the surrounding water phase. The hydrophobic portion provides spontaneous adsorption of the surfactant at the interface and strong interaction with the adjacent air phase. If any of these functions are not performed, then CMC formation and surface tension reduction will not occur. For significant surface activity, a properly balanced hydrophilic and hydrophobic character is essential.

[5] = Water Solubility and Krafft Point (0.1% solution in water, 40° C.)
Excerpt: The temperature at which a surfactant forms micelles instead of precipitates is referred to as the Krafft point (Tk), and at or below this temperature the solubility of a surfactant becomes equal to its CMC (numerical value at which micelles are formed).

[6] = Flow aids: water uptake and appearance of intimate admixtures; format: physicochemical; settings: for handling and flowing characteristics (in words): intimate admixtures with ODS, SCMOS, CP-5 or CP-7; for Appearance (flow) / % H2O Uptake: 25° C., 65% R.H.; for % H2O Uptake: based on builder
Excerpt: It is known in the are that certain ingredients are hygroscopic in nature and liquify after exposure to moisture after a few days. […] Samples were removed periodically, weighed and returned to R. H. chamber. Percent water uptake was based on the amound of builder present. % H2 O Uptake=grams of water absorbed/grams of builder×100 Identical mixtures of ODS, SCMOS, CP-5 or CP-7 and methyl α-D-glucose-6-O-monolaurate (c12 Mgluc), dodecyl β-D-glucopyranoside (C12 Gluc), dodecyl β-D-maltoside (C12 Malt), D-glucose or D-sorbitol were also prepared and are used for comparison. When the comparative sugar surfactant of monosacchardie are used, percent water uptake was based on the amount of saccharide present. % H2 O Uptake=grams of water absorbed/grams of saccharide×100

[7] = Clarity Enhancement of prototype detergent compositions; format: physicochemical; settings: detergent formulation
Protocol: The formulations were placed in a clear jar and stored for 1 month. The prototype detergent compositions are as follows:
as §1, §2
N-Coconut D-Glucocarbamate
0.5-4.0% Foam Stabilizer/Thickener
as §4, §5
For a clear detergent formulation to be successful it must have good shelf life and should not become turbid or produce sedimentation upon standing.

[8] = Water solubility and turbidity in aqueous personal product and detergent compositions (statement)
[9] = Pearlescent/Suspending Action in prototype personal product compositions; format: physicochemical; settings: for Appearance (pearlescence/suspending): 15.0% sodium lauryl sulfate, room temperature, 1 month
Protocol: The formulations were placed in a clear jar and stored for 1 month. The prototype personal product compositions are as follows:
Personal Product Compositions Comprising Sodium
as §2
N-Tallow D-Glucocarbamate
0.5-4.0% Pearlescent/Suspending
as §3, §4, §5
For a pearlecent personal product formulation to be successful it must have good shelf life and should not separate upon standing.

Foam Stability ([1]; 4.0% thickener): No
Viscosity (Centipoise) ([1]; 4.0% thickener): 27 Centipoise
Appearance (viscosity) ([2]; 2.0% thickener): Purable Liquid
Viscosity Increase ([2]; 2.0% thickener): No
Appearance (viscosity) ([2]; 4.0% thickener): Purable Liquid
Viscosity Increase ([2]; 4.0% thickener): No
Appearance (viscosity) ([2]; 7.0% thickener): Purable Liquid
Viscosity Increase ([2]; 7.0% thickener): No
Compound: O=C[C@H](O)[C@@H](O)[C@H](O)[C@H](O)CO [D-Glucose, D-glucose, reference compound]

Compound: CCCCCCCCCCCC(=O)N(CCO)CCO [Lauramide DEA, lauric diethanolamide, reference compound]
Foam Stability ([1]; 4.0% thickener): Yes
Viscosity (Centipoise) ([1]; 4.0% thickener): 2376 Centipoise

Surface tension reduction (γ) at 40° C. ([3]; 40° C.): Yes
CMC at 40° C. (micelle formation) ([4]; 40° C.): Yes
H2O Solubility at 40° C. ([5]; 40° C.): Yes
Krafft point (Tk) ([5]; 40° C.): Below Tk
Compound: CCCCCCCCCCN1C[C@H](O)[C@H]([C@H](O)[C@H](O)CO)OC1=O [N-Decyl D-Glucocarbamate]

Surface tension reduction (γ) at 40° C. ([3]; 40° C.): Yes
CMC at 40° C. (micelle formation) ([4]; 40° C.): Yes
H2O Solubility at 40° C. ([5]; 40° C.): Yes
Krafft point (Tk) ([5]; 40° C.): Below Tk
Compound: CCCCCCCCCCN(C[C@H](O)[C@@H](O)[C@H](O)[C@H](O)CO)C(N)=O [N-Decyl D-Glucourea]

Foam Stability ([1]; 4.0% thickener): Yes
viscosity increase from normal viscosity ([1]; 4.0% thickener): 99-104 times
Viscosity (Centipoise) ([1]; 4.0% thickener): 2176 Centipoise
Foam Stability ([1]; 4.0% thickener, listed as N-dodecyl D-glucocarbamate): stabilize foam
Surface tension reduction (γ) at 40° C. ([3]; 40° C.): Yes
CMC at 40° C. (micelle formation) ([4]; 40° C.): Yes
clarity (in words) [7]: clear without sedimentation
Appearance (viscosity) ([2]; 2.0% thickener): Slightly Viscous
Viscosity Increase ([2]; 2.0% thickener): Yes
Appearance (viscosity) ([2]; 4.0% thickener): Viscous
Viscosity Increase ([2]; 4.0% thickener): Yes
Appearance (viscosity) ([2]; 7.0% thickener): Very Viscous
Viscosity Increase ([2]; 7.0% thickener): Yes
H2O Solubility at 40° C. ([5]; 40° C.): Yes
Krafft point (Tk) ([5]; 40° C.): Below Tk
Compound: CCCCCCCCCCCCN1C[C@H](O)[C@H]([C@H](O)[C@H](O)CO)OC1=O [N-Dodecyl D-Glucocarbamate]
viscosity enhancement and foam stabilization (comparison in words) ([1]; compared with lauramide DEA, cocoamide MEA, Neodol 91-6 and D-glucose): enhance viscosity and stabilze foam compartively to lauramide diethanolamine (DEA), but better than cocoamide menoethanolamine (MEA), Neodol 91-6 (C9 -C11 alcohol ethoxylate with 6 moles of ethylene oxide) and D-glucose
handling and flowing characteristics (in words) [6]: improved the handling and flowing characteristics
viscosity increase (in words) ([2]; compared with D-glucose): increases the viscosity of that composition more effectively than D-glucose

Surface tension reduction (γ) at 40° C. ([3]; 40° C.): Yes
CMC at 40° C. (micelle formation) ([4]; 40° C.): Yes
water solubility ([8]; compared to other known glycacarbamate and glycaurea compounds): enhanced water solubility
turbidity ([8]; in aqueous personal product and detergent compositions): less turbid
H2O Solubility at 40° C. ([5]; 40° C.): Yes
Krafft point (Tk) ([5]; 40° C.): Below Tk
Compound: CCCCCCCCCCCCN1C[C@H](O)[C@H]([C@H](O[C@H]2O[C@H](CO)[C@@H](O)[C@H](O)[C@H]2O)[C@H](O)CO)OC1=O [N-Dodecyl D-Maltocarbamate]

Surface tension reduction (γ) at 40° C. ([3]; 40° C.): No
CMC at 40° C. (micelle formation) ([4]; 40° C.): No
CMC at 40° C. (micelle formation) ([4]; 40° C., listed as E): do not form micelles
H2O Solubility at 40° C. ([5]; 40° C.): No
Krafft point (Tk) ([5]; 40° C.): Above Tk
H2O Solubility at 40° C. ([5]; 40° C., listed as E): insoluble in water
Compound: CCCCCCCCCCCCCCCCN1C[C@H](O)[C@H]([C@H](O)[C@H](O)CO)OC1=O [N-Hexadecyl D-Glucocarbamate]
Surface tension reduction (γ) at 40° C. ([3]; 40° C., listed as E): do not significantly reduce the surface tension of water

Appearance (pearlescence/suspending) ([9]; 0.5% opacifier): Pearlescent/Suspending Action
Appearance (pearlescence/suspending) ([9]; 1.0% opacifier): Pearlescent/Suspending Action
Appearance (pearlescence/suspending) ([9]; 2.0% opacifier): Pearlescent/Suspending Action
Appearance (pearlescence/suspending) ([9]; 3.0% opacifier): Pearlescent/Suspending Action
Appearance (pearlescence/suspending) ([9]; 4.0% opacifier): Pearlescent/Suspending Action
pearlescence (in words) ([9]; sodium lauryl sulfate compositions): excellent pearlescence
Surface tension reduction (γ) at 40° C. ([3]; 40° C.): No
CMC at 40° C. (micelle formation) ([4]; 40° C.): No
H2O Solubility at 40° C. ([5]; 40° C.): No
Krafft point (Tk) ([5]; 40° C.): Above Tk
Compound: CCCCCCCCCCCCCCCCN(C[C@H](O)[C@@H](O)[C@H](O)[C@H](O)CO)C(N)=O [N-Hexadecyl D-Glucourea]
handling and flowing characteristics (in words) [6]: improved the handling and flowing characteristics

Surface tension reduction (γ) at 40° C. ([3]; 40° C.): No
CMC at 40° C. (micelle formation) ([4]; 40° C.): No
CMC at 40° C. (micelle formation) ([4]; 40° C., listed as F): do not form micelles
H2O Solubility at 40° C. ([5]; 40° C.): No
Krafft point (Tk) ([5]; 40° C.): Above Tk
H2O Solubility at 40° C. ([5]; 40° C., listed as F): insoluble in water
Compound: CCCCCCCCCCCCCCCCCCN1C[C@H](O)[C@H]([C@H](O)[C@H](O)CO)OC1=O [N-Octadecyl D-Glucocarbamate]
Surface tension reduction (γ) at 40° C. ([3]; 40° C., listed as F): do not significantly reduce the surface tension of water

Surface tension reduction (γ) at 40° C. ([3]; 40° C.): Yes
CMC at 40° C. (micelle formation) ([4]; 40° C.): Yes
H2O Solubility at 40° C. ([5]; 40° C.): Yes
Krafft point (Tk) ([5]; 40° C.): Below Tk
Compound: CCCCCCCCN1C[C@H](O)[C@H]([C@H](O)[C@H](O)CO)OC1=O [N-Octyl D-Glucocarbamate]

Surface tension reduction (γ) at 40° C. ([3]; with slight heating): Yes
CMC at 40° C. (micelle formation) ([4]; with slight heating): Yes
H2O Solubility at 40° C. ([5]; with slight heating): Yes
Krafft point (Tk) ([5]; with slight heating): Below Tk
Compound: CCCCCCCCCCCCCCN1C[C@H](O)[C@H]([C@H](O)[C@H](O)CO)OC1=O [N-Tetradecyl D-Glucocarbamate]
handling and flowing characteristics (in words) [6]: improved the handling and flowing characteristics

Compound: O=C([O-])CC(OC(CC(=O)[O-])C(=O)[O-])C(=O)[O-].[Na+].[Na+].[Na+].[Na+] (centres unmarked) [Na4 ODS, tetrasodium oxydisuccinate, reference compound]
Appearance (flow) ([6]; 4 days): Liquid
% H2O Uptake ([6]; 4 days): 59%

Appearance (flow) ([6]; 9 days): Sticky Paste
% H2O Uptake ([6]; 9 days): 38%
Compound: tetrasodium sulfocarboxymethyloxysuccinate [Na4 SCMOS, reference compound]
